# Laboratory results published in PubChem BioAssay (NCI).
# “And” between values parts separate entries of the source, which are not always exact repeats. Equal entries are not always repeated.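 Five concentrations, 48 hours, 96-well plates. GI50 is the concentration that inhibits growth by half. The concentration for full growth arrest is given as TGI.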
# How the values were obtained:
# Assay in all cases: NCI tumour cell line growth inhibition, 48 h
# [1] = tested on: OVCAR-4 ovarian
# [2] = tested on: LOX IMVI melanoma
# [3] = tested on: SF-295 CNS
# [4] = tested on: NCI-H460 lung
# [5] = tested on: HOP-92 NSCLC
# [6] = tested on: SF-268 CNS
# [7] = tested on: HOP-62 NSCLC
# [8] = tested on: SK-MEL-5 melanoma
# [9] = tested on: OVCAR-5 ovarian
# [10] = tested on: SK-MEL-28 melanoma
SMILES,GI50 [1],TGI [1],GI50 [2],TGI [2],GI50 [3],TGI [3],GI50 [4],TGI [4],GI50 [5],TGI [5],GI50 [6],TGI [6],GI50 [7],TGI [7],GI50 [8],TGI [8],GI50 [9],TGI [9],GI50 [10],TGI [10]
O=C(/C=C/c1ccc(O)c(O)c1)N1CCN(c2ccc(Cl)cc2)CC1,3.48 µM,39.5 µM,7.35 µM,21.6 µM,19.1 µM,> 100 µM,4.79 µM,21.5 µM,2.42 µM,23.4 µM,4.92 µM,42.6 µM,7.77 µM,35.1 µM,2.65 µM,10.2 µM,13.3 µM,85.7 µM,11.5 µM,58.5 µM
COc1cc2c(oc(=O)c3c4occc4cc(OC)c23)c2cccc(O)c12,–,> 100 µM,–,> 100 µM,–,> 100 µM,–,> 100 µM,–,> 100 µM,–,> 100 µM,–,> 100 µM,–,> 100 µM,–,> 100 µM,–,> 100 µM
CNC(=O)CCN1CCN(CC/C=C2\c3ccccc3Sc3ccc(Cl)cc32)CC1,13.2 µM,28.2 µM,5.15 µM,18.9 µM,1.84 µM,6.47 µM,7.02 µM,21.6 µM,5.75 µM,27 µM,9.83 µM,23.9 µM,14.6 µM,32.7 µM,2.41 µM,6.18 µM,22.6 µM,41.2 µM,1.76 µM,3.36 µM
COc1cc(-c2nc(-c3ccccc3)c(-c3ccccc3)[nH]2)cc(OC)c1O,17.6 µM,56.8 µM,17.2 µM,32.6 µM,17.1 µM,45.5 µM,17.3 µM,36.3 µM,17.6 µM,35.4 µM,20.1 µM,44.1 µM,21.9 µM,47.8 µM,14.2 µM,27.6 µM,15.4 µM,31.7 µM,14.9 µM,31.1 µM
COC(=O)c1c(C)nc(C)c2c1C(=O)C(Br)=C(NCc1ccccc1)C2=O,1.55 µM,3 µM,2.45 µM,10.8 µM,3.04 µM,10.4 µM,2.94 µM,11.5 µM,2.46 µM,5.78 µM,3.46 µM,13.5 µM,3.12 µM,10.8 µM,1.47 µM,2.85 µM,3.11 µM,7.9 µM,5.79 µM,17.5 µM
CC1NOC(=O)C1N=Nc1cccc(Cl)c1 (stereo not drawn),–,> 100 µM,–,> 100 µM,–,> 100 µM,–,> 100 µM,–,> 100 µM,–,89.9 µM,–,> 100 µM,–,> 100 µM,–,> 100 µM,–,> 100 µM
Cc1c(Cl)ccc2c1NC(=O)C2(O)CC(=O)c1ccc(Cl)cc1 (stereo not drawn),–,> 100 µM,–,> 46.3 µM,–,> 58.3 µM,–,> 63.3 µM,–,> 100 µM,–,> 100 µM,–,> 100 µM,–,> 100 µM,–,> 100 µM,–,> 100 µM
CCOc1ccc(C2=NN(CC)C(=O)C(C3C(=O)N(c4ccccc4)N=C3C)C2)cc1 (stereo not drawn),–,> 100 µM,–,> 100 µM,–,> 100 µM,–,> 100 µM,–,> 100 µM,–,> 100 µM,–,> 100 µM,–,> 100 µM,–,> 100 µM,–,> 100 µM
COc1cc(C(=O)c2cnc(-c3c[nH]c4cccc(C)c34)[nH]2)cc(OC)c1OC,0.529 µM,> 100 µM,0.0151 µM,> 100 µM,–,52.9 µM,0.00618 µM,35.4 µM,–,18.3 µM,0.00862 µM,> 100 µM,0.00809 µM,55.9 µM,0.00365 µM,0.0221 µM and 0.0366 µM,0.0746 µM,> 100 µM,0.99 µM,97.4 µM
Cn1cc(-c2cc(-c3cn(C)c4ccccc34)[nH]n2)c2ccccc21,34.9 µM,> 100 µM,5.38 µM,> 100 µM,17.1 µM,> 100 µM,4.48 µM,> 100 µM,2.06 µM,9.57 µM,16 µM,> 100 µM,17.3 µM,60 µM,13.1 µM,> 100 µM,> 100 µM,> 100 µM,> 100 µM,> 100 µM
S=c1ssnc1-c1cc2ccccc2o1,21.6 µM,> 100 µM,4.12 µM,15.7 µM,14.3 µM,33.8 µM,11 µM,29.5 µM,18.5 µM,43.2 µM,13.9 µM,35 µM,17.3 µM,37.6 µM,13.6 µM,26.7 µM,20.8 µM,39.2 µM,15.1 µM,30 µM
CCCC1C[C@H]2CCCCN2[C@H]2CCCN12 (stereo partly drawn),–,> 100 µM,–,> 55 µM,–,> 100 µM,–,> 100 µM,–,> 100 µM,–,> 100 µM,–,> 100 µM,–,> 100 µM,–,> 100 µM,–,> 100 µM
CCSC[C@@H]1C[C@](O)(c2ccccc2)[C@@H](c2ccccc2)O1,66.9 µM,> 100 µM,> 94.2 µM,> 100 µM,46.2 µM,> 100 µM,> 76.1 µM,> 100 µM,65.5 µM,> 100 µM,> 78.6 µM,> 100 µM,> 100 µM,> 100 µM,44.4 µM,> 100 µM,> 100 µM,> 100 µM,> 100 µM,> 100 µM
O=c1c(I)c[nH]cc1I,> 100 µM,> 100 µM,> 100 µM,> 100 µM,> 100 µM,> 100 µM,> 100 µM,> 100 µM,67.1 µM,> 100 µM,> 100 µM,> 100 µM,> 100 µM,> 100 µM,> 100 µM,> 100 µM,> 100 µM,> 100 µM,> 100 µM,> 100 µM
